Laboratory results: patent US20220193068A1, “A GRK2 PROTEIN INHIBITOR COMPOUND AND A PHARMACEUTICAL COMPOSITION COMPRISING THE SAME” (CONSEJO NACIONAL DE INVESTIGACIONES CIENTÍFICAS Y TÉCNICAS …, priority 2019, published 2022)

Legend:
HEPG2 cell line [1] = tested on: HEPG2 cell line
Method: (§1) Since hepatotoxicity is one of the main forms of toxicity in which drugs affect the body, the cytotoxicity of inhibitors was assessed using the human hepatocyte HEPG2 cell line.
(§2) Cells were plated in a 96-well plate at a 22,000 cell/well density and incubated for 48 hours with the compounds in a concentration range of between 0.33 μM and 200 μM. Afterwards, their viability was analyzed through trypan blue exclusion method and counted in Neubauer camera.

[2] = molecular target: T1, RGS domain of GRK2 (GRK2-K220R variant) (Bos taurus, UniProt P21146, K220R); experiment: cAMP response of rH2 to amthamine in HEK293 clones overexpressing rH2 and GRK2-K220R; type: cell-based; conditions: 40 min pretreatment, C2-C5 at 10 μM or 100 μM, L96B at 100 nM or 1 μM, 10 μM amthamine, *p<0.05
T1 construct: expressed in transfected cells
T1 sequence (P21146 1-689 K220R): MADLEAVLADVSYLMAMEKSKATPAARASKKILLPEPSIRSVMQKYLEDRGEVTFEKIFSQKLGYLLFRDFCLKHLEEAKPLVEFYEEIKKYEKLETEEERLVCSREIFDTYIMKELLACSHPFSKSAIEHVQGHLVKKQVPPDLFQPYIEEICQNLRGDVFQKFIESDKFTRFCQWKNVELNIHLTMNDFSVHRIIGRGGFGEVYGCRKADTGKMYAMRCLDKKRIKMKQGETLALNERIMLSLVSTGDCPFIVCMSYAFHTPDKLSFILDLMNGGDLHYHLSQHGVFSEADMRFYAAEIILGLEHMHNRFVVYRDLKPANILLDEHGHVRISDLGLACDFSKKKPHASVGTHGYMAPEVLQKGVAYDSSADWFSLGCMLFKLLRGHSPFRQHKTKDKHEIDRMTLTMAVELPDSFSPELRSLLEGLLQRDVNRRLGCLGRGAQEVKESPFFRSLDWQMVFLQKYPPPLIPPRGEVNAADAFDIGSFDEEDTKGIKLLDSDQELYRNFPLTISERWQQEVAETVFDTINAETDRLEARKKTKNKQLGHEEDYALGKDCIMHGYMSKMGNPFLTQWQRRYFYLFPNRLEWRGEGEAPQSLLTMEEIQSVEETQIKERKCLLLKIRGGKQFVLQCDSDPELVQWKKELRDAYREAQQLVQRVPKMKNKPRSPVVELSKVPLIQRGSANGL
Description: In order to assess the effect of inhibitors of the RGS domain of GRK2, a cell model derived from HEK293 transfected cells was obtained. Such cells overexpress the histamine H2 receptor (rH2), a G-protein coupled receptor (GPCR) of the Gs type that, when activated, promotes cAMP synthesis and which is inactivated by regulatory domain-mediated desensitization of G-protein stimulation (RGS) of GRK2. The clone obtained not only overexpresses rH2 but also overexpresses a negative dominant mutant of GRK2, the GRK2-K220R variant, which cannot phosphorylate GPCRs but can inactivate them through its RGS domain. In this system, the desensitizing effect of the RGS domain of GRK2 on the cAMP response of rH2 is evident.
Clones derived from HEK293 cells were obtained by stable and sequential transfection with pcDNA3.1Zeo(+)-HARH2 and pcDNA3-GRK2K22OR plasmids using K2 Transfection System (BIONTEX) reactive, following manufacturer's instructions and using, for a 35 mm diameter plate, a mixture A of 2.7 μg of total DNA and 150 μl of DMEM base and a mixture B of 6 μl of K2 transfection reactive and 150 μl of base DMEM. The following day, cells were plated in 96-well plates with 0.3 ml of complete DMEM per well. For clone selection, cells were incubated in selection agent-supplemented medium (50 μg/ml Zeocine or 1.2 mg/ml geneticin), following a limit dilution protocol. According to this protocol, cells were counted and plated performing serial dilutions, so as to obtain wells with con 1000, 100, 10 and 1 cell. The medium was renewed every other day by replacing 100 μl in each well with 100 μl of fresh medium of the same composition. After three weeks, several antibiotic-resistant clones were selected and afterwards plasmid expression was analyzed by Western blot.
Adhered clones were maintained in a humidified-atmosphere oven, with 5% CO2 at 37° C., in 10% FBS-supplemented DMEM medium, 50 μg/ml gentamicin, 0.8 mg/ml geneticin and 50 μg/ml zeocin. Cells were passed by adding 0.05% trypsin solution and 0.3 mM EDTA.
In order to assess the effect of GRK2 inhibitor compounds, clones were plated in 48-well plates at 50% confluence. […]
Next, cells were incubated for 3 min with 1 mM IBMX, a phosphodiesterase inhibitor that prevents degradation of the cAMP produced and afterwards the rH2-Gαs-adenylate-cyclase-cAMP signaling route was stimulated for 9 minutes with the rH2-specific agonist, amthamine, at a 10 μM concentration. […] This was evaporated and cAMP levels were determined.
cAMP in samples was quantified by adapting the linking protein-binding technique according to Davio et al, 1995.

[3] = tested on: GRK2K220R/R106A (mutated RGS domain); experiment: Selectivity control: cAMP response of rH2 in HEK293 clones overexpressing rH2 and GRK2K220R/R106A; type: cell-based; conditions: 10 μM amthamine, no significant differences
Method: In order to assess specificity of the effect of compounds over RGS domain of GRK2, assays were carried out in a second system that overexpresses rH2 and GRK2K220R/R106A, a GRK2 double mutant negative dominant construct that lacks both kinase activity and desensitization action through RGS domain. […] The R106A mutation that inactivates the RGS domain is redundant to the effect of an inhibitory potential, thus constituting the selectivity control of the model and allowing to determine if the enhancement in the receiver response occurred as a result of an inhibition of the RGS domain, or if it was the result of a non-specific action of the compound on an unwanted target. Those compounds that also raise cAMP levels in this control system are considered to be of non-specific action.
Since the latter mutation is redundant to the effect of a potential inhibitor of RGS domain of GRK2, this system allows us to discern whether the enhancement in the rH2 response occurred as a result of an RGS domain inhibition, or whether it resulted from a non-specific action of the compound on an unwanted target.

HEPG2 cell line [4] = experiment: Viability of human hepatocyte HEPG2 cells, trypan blue exclusion; conditions: 48 hours, 0.33 μM to 200 μM, versus DMSO control, C2 effect as from 10 μM
Method: as §1, §2

CC(=O)N1CCc2cc(NC(=O)Nc3cccc4cccnc34)ccc21 [C2, 3-(1-acetyl-2,3-dihydro-H-indol-5-yl)-1-(quinoline-8-yl)urea]
EC50 (HEPG2 cell line [1]): 10.3 µM
effect on H2 receptor capacity of response (cAMP) [2]: enhancing effect
effect over rH2 capacity of response (cAMP) with GRK2 mutated in the RGS domain [3]: lack of effect

Cc1ccc2cc(C(=O)Nc3cccc(-c4nnco4)c3)c(C)nc2c1 [C3, 2,7-dimethyl-N-[3-(1,3,4-oxadiazol-2-yl)phenyl] quinoline-3-carboxamide]
effect on H2 receptor capacity of response (cAMP) [2]: enhancing effect
effect over rH2 capacity of response (cAMP) with GRK2 mutated in the RGS domain [3]: lack of effect

O=C(CCc1ccc2ccccc2c1)N1CCCC(n2cccn2)C1 (centres unmarked) [C4, 3-(naphtalen-2-yl)-1-[3-(1H-pyrazol-1-yl)piperidin-1-yl]propan-1-one]
effect on H2 receptor capacity of response (cAMP) [2]: enhancing effect
effect over rH2 capacity of response (cAMP) with GRK2 mutated in the RGS domain [3]: lack of effect

O=C(Cc1n[nH]c(=O)c2ccccc12)Nc1cccc2ncccc12 [C5, 2-(4-oxo-3,4-dihydrophthalazin-1-yl)-N-(quinoline-5-yl)acetamide]
effect on H2 receptor capacity of response (cAMP) [2]: enhancing effect
effect over rH2 capacity of response (cAMP) with GRK2 mutated in the RGS domain [3]: lack of effect

O=C(Nc1ccc(-c2nnco2)cc1)c1cnc2ccccc2c1 [L94C, N-[4-(1,3,4-oxadiazol-2-yl)phenyl]quinoline-3-carboxamide]
melting point: 202 °C

COC(=O)c1ccc(NC(=O)c2ccc3ccccc3c2)cc1 [L96B, methyl 4-(naphthalene-2-amido)benzoate]
cytotoxicity / cell viability (HEPG2 cell line [4]): did not affect cell viability
